Experimental data from patent publication US12715844B2, “Compound, preparation method therefor, composition, kit and use thereof” (SIGNDO BIOTECHNOLOGY (SUZHOU) CO., LTD, priority 2023, dated 2026).

Tests used:
[1] = test system: 22RV1 (PSMA+); assay: In vivo live imaging comparison with the existing product OTL78; set-up: species or system mice; conditions: for TBR (tumor-to-background ratio), in words: from about 2 h to 72 h; for fluorescence value at the tumor site compared with OTL78: mice, each time point; for TBR compared with OTL78: relative to OTL78
Source text: (§1) “V” denotes the volume-to-mass ratio. […] Mice refer to BALB/c nude mice, 6-8 weeks old, weighing 18-20 g; rats refer to SD rats: 8 weeks old, approximately 250 g.
3. Comparison with the Existing Product OTL78
(§2) The Prostate-specific membrane antigen (PSMA) is overexpressed on prostate cancer cells. The test compound is a PSMA-targeting molecule conjugated with a near-infrared region I dye. The test compound can bind to PSMA and “illuminate” cancer cells upon excitation by a near-infrared light source. In this experiment, the in vivo and ex vivo tissue distribution of the test compound in mice is detected using in vivo live imaging.
DGPR1008, 22RV1 (PSMA+), BALB/c nude mouse, 1640 culture medium, FBS, double antibodies, trypsin, Matrigel (BD), vernier caliper, centrifuge, IVIS live imager.
(§3) Matrigel was thawed on ice in advance, and the culture medium was pre-cooled on ice. After centrifugation, the cells were resuspended in the pre-cooled culture medium, followed by the addition of HC Matrigel gel in a volume equal to the culture medium. The centrifuge tube containing the cells was placed on ice and transferred to the animal facility. The cells were thoroughly dispersed before inoculation. The back of the neck was disinfected with an alcohol cotton ball, and a single intravenous administration was performed with an inoculation volume of 200 μL per mouse. All operations were performed on ice. When the tumor volume reached 300-400 mm^3, the mice were grouped for administration. Six mice with well-grown and regularly shaped tumors were selected into the group. The six mice were randomly divided into two groups: G1 (OTL78 10 nmol/mouse) and G2 (DGPR1008 10 nmol/mouse) with three mice in each group. The scanning time: 1, 2, 4, 8, 24, and 72 h.
(1) Results and Data of In Vivo Live Imaging of Drug Efficacy (Mice were Used as Experimental Subjects in this Part)

[2] = test system: 22RV1 (PSMA+); assay: 2-hour ex vivo tissue distribution: fluorescence of tumor and in situ normal prostate; set-up: species or system mice; conditions: relative to OTL78
Source text: as §2, §3
(2) Results of 2-Hour Ex Vivo Tissue Distribution: Fluorescence Ratio of Tumor to In Situ Normal Prostate: […]

[3] = Pharmacokinetic parameters in rat plasma; format: in vivo; conditions: compared with OTL78
[4] = target: T1, PSMA receptor (Homo sapiens, UniProt Q04609); assay: Receptor binding detected by flow cytometry in vitro (competitive binding with DUPA-FITC); conditions: 22RV1 (PSMA+) cells, competition with 100 nmol/L DUPA-FITC
T1 construct: endogenous in cells; host or cells: 22RV1 (PSMA+); PC3 (PSMA−) as negative control
T1 sequence (Q04609 whole entry): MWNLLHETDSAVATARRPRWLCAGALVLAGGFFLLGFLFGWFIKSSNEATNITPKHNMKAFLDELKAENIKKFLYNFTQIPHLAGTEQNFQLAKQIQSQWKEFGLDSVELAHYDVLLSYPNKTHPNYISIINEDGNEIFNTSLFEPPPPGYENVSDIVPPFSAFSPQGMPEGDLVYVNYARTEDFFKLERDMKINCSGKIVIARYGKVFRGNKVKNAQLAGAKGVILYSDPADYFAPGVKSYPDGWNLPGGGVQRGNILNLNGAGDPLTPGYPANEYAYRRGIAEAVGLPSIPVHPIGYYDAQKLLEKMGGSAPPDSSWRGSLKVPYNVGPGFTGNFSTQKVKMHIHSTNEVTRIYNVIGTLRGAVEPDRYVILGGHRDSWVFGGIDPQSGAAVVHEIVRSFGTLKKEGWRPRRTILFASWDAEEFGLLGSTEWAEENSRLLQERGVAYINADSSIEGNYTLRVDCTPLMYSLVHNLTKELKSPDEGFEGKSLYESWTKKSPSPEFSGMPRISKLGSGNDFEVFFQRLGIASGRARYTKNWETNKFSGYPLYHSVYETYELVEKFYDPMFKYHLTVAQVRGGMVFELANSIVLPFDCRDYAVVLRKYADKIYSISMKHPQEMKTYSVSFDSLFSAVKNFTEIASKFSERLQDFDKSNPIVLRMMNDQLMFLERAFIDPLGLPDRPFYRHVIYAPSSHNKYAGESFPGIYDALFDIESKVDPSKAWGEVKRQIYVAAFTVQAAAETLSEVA
Source text: 1. Receptor Binding was Detected by Flow Cytometry In Vitro:
Prostate-specific membrane antigen (PSMA) is overexpressed on prostate cancer cells. Both DUPA-FITC and DGPR1008 are capable of targeting the PSMA receptor in prostate cancer cells, with the difference being that DUPA-FITC is connected to a visible light dye (Ex=495 nm, Em=520 nm), whereas DGPR1008 is connected to a near-infrared dye (Ex=776 nm, Em=793 nm). Since the majority types of lasers equipped in flow cytometers operate within the visible light spectrum, the binding affinity of DGPR1008 to the receptor can not be directly measured. Therefore, the competitive binding of DGPR1008 with DUPA-FITC to PSMA is employed to indirectly assess the binding affinity of the test compound to the receptor.
DGPR1008, DUPA-FITC, 22RV1 (PSMA+), PC3 (PSMA−), 1640 culture medium, FBS, double antibiotics, trypsin, centrifuge, 4° C. constant temperature incubator, flow cytometer.
Drug preparation: 100 nmol/L DUPA-FITC was prepared using culture medium. The test compound was diluted to nine concentrations (0.00098 μM, 0.002 μM, 0.008 μM, 0.01 μM, 0.03 μM, 0.05 μM, 0.09 μM, 0.1 μM, and 0.125 μM) using culture medium containing 100 nmol/L DUPA-FITC, with three replicate wells for each concentration.
Cell culture: The cells were seeded in T75 culture flasks. After 48 h, cells in the logarithmic growth phase were taken, digested with trypsin for 1-2 min, and the digestion was then terminated by adding fresh culture medium. After cell counting, the cells were transferred into a 96-well plate (1×10^5 cells/well), totaling 27 wells. The culture medium was discarded by centrifugation (800 rpm, 5 min), and the cells were washed twice with PBS and then centrifuged to collect the cell pellet. The prepared culture media with 9 concentrations were added to the cell-containing wells, with three replicates for each concentration. The cells were incubated at 4° C. in the dark for 30 min, and then the culture medium in the wells was discarded. Cells were washed by adding 300 μL of fresh culture medium (twice) and saline (once) to each well, followed by resuspension in 300 μL of saline for flow cytometry detection.

[5] = Acute toxicity experiment on rats; conditions: three dose groups of high, medium and low doses
[6] = test system: 22RV1 (PSMA+); assay: Drug efficacy validation by in vivo live imaging, three dose groups; set-up: species or system mice; conditions: for targeting properties: 22RV1 tumor mice, in vivo live imaging; for enrichment in the prostate cancer tumor site: high, medium and low doses (25, 50, 100 nmol/mouse), scans 1-48 h
Source text: as §1
2. Drug Efficacy Validation Experiment Using In Vivo Live Imaging
Prostate-specific membrane antigen (PSMA) is overexpressed on prostate cancer cells. The test compound is a PSMA-targeting molecule conjugated with a near-infrared region I dye. The test compound can bind to PSMA and “illuminate” cancer cells upon excitation by a near-infrared light source. In this experiment, the in vivo tissue distribution of the test compound in mice is detected using in vivo live imaging.
DGPR1008, 22RV1 (PSMA+), PC3 (PSMA−), 1640 culture medium, FBS, double antibodies, trypsin, Matrigel (BD), vernier caliper, centrifuge, IVIS live imager.
Matrigel was thawed on ice in advance, and the culture medium was pre-cooled on ice. After centrifugation, the cells were resuspended in the pre-cooled culture medium, followed by the addition of HC Matrigel gel in a volume equal to the culture medium. The centrifuge tube containing the cells was placed on ice and transferred to the animal facility. The cells were thoroughly dispersed before inoculation. The right dorsal shoulder area of the mice was disinfected with an alcohol cotton ball, and a single intravenous administration was performed with an inoculation volume of 200 μL per mouse. All operations were performed on ice. When the tumor volume reached 300-400 mm^3, the mice were grouped for administration. Nine mice with well-grown and regularly shaped tumors were selected into the group. The nine mice were randomly divided into three groups: G1 (25 nmol/mouse), G2 (50 nmol/mouse), and G3 (100 nmol/mouse), with three mice in each group. The scanning time: 1, 2, 4, 8, 24, and 48 h.

Structure (SMILES) | TBR (tumor-to-background ratio), in words [1] | fluorescence value at the tumor site compared with OTL78 [1] | TBR compared with OTL78 [1] | discrimination capability (tumor vs normal prostate) compared with OTL78 [2] | clearance in rats in vivo, in words [3] | binding affinity to PSMA receptor [4] | toxic reactions in acute toxicity experiment [5] | targeting properties [6] | enrichment in the prostate cancer tumor site [6]
CC1(C)C(=CC=C2CCCC(C=CC3=[N+](CCCCS(=O)(=O)[O-])c4ccc(S(=O)(=O)[O-])cc4C3(C)C)=C2Oc2ccc(CC(NC(=O)CCOCCOCCNC(=O)CCC(NC(=O)NC(CCC(=O)[O-])C(=O)[O-])C(=O)[O-])C(=O)[O-])cc2)N(CCCCS(=O)(=O)[O-])c2ccc(S(=O)(=O)[O-])cc21.[Li+].[Li+].[Li+].[Li+].[Li+].[Li+].[Li+] (stereo not drawn) [Example 13] | good TBR | greater fluorescence values at the tumor site than OTL78 | higher TBR | approximately 5 fold | cleared more rapidly | good affinity | no toxic reactions were observed | good targeting properties | enriched in the prostate cancer tumor site
CC1(C)C(=CC=C2CCCC(C=CC3=[N+](CCCCS(=O)(=O)[O-])c4ccc(S(=O)(=O)[O-])cc4C3(C)C)=C2Oc2ccc(CC(NC(=O)CCOCCOCCNC(=O)CCC(NC(=O)NC(CCC(=O)[O-])C(=O)[O-])C(=O)[O-])C(=O)[O-])cc2)N(CCCCS(=O)(=O)[O-])c2ccc(S(=O)(=O)[O-])cc21.[K+].[K+].[K+].[K+].[K+].[K+].[K+] (stereo not drawn) [Example 12] | good TBR | greater fluorescence values at the tumor site than OTL78 | higher TBR | approximately 5 fold | cleared more rapidly | good affinity | no toxic reactions were observed | good targeting properties | enriched in the prostate cancer tumor site
CC1(C)C(=CC=C2CCCC(C=CC3=[N+](CCCCS(=O)(=O)[O-])c4ccc(S(=O)(=O)[O-])cc4C3(C)C)=C2Oc2ccc(CC(NC(=O)CCOCCCOCCCCCOCCOCCNC(=O)CCC(NC(=O)NC(CCC(=O)[O-])C(=O)[O-])C(=O)[O-])C(=O)[O-])cc2)N(CCCCS(=O)(=O)[O-])c2ccc(S(=O)(=O)[O-])cc21.[Na+].[Na+].[Na+].[Na+].[Na+].[Na+].[Na+] (stereo not drawn) [Example 51] | good TBR | greater fluorescence values at the tumor site than OTL78 | higher TBR | approximately 5 fold | cleared more rapidly | good affinity | no toxic reactions were observed | good targeting properties | enriched in the prostate cancer tumor site
CC1(C)C(=CC=C2CCCC(C=CC3=[N+](CCCCS(=O)(=O)[O-])c4ccc(S(=O)(=O)[O-])cc4C3(C)C)=C2Oc2ccc(CC(NC(=O)CCOCCCOCCCNC(=O)CCC(NC(=O)NC(CCC(=O)[O-])C(=O)[O-])C(=O)[O-])C(=O)[O-])cc2)N(CCCCS(=O)(=O)[O-])c2ccc(S(=O)(=O)[O-])cc21.[Na+].[Na+].[Na+].[Na+].[Na+].[Na+].[Na+] (stereo not drawn) [Example 31] | good TBR | greater fluorescence values at the tumor site than OTL78 | higher TBR | approximately 5 fold | cleared more rapidly | good affinity | no toxic reactions were observed | good targeting properties | enriched in the prostate cancer tumor site
CC1(C)C(=CC=C2CCCC(C=CC3=[N+](CCCCS(=O)(=O)[O-])c4ccc(S(=O)(=O)[O-])cc4C3(C)C)=C2Oc2ccc(CC(NC(=O)CCOCCCOCCCOCCOCCOCCNC(=O)CCC(NC(=O)NC(CCC(=O)[O-])C(=O)[O-])C(=O)[O-])C(=O)[O-])cc2)N(CCCCS(=O)(=O)[O-])c2ccc(S(=O)(=O)[O-])cc21.[Na+].[Na+].[Na+].[Na+].[Na+].[Na+].[Na+] (stereo not drawn) [Example 41] | good TBR | greater fluorescence values at the tumor site than OTL78 | higher TBR | approximately 5 fold | cleared more rapidly | good affinity | no toxic reactions were observed | good targeting properties | enriched in the prostate cancer tumor site
